Data on ten molecules can be found in PubChem BioAssay (NCI).

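Assay format: 96-well plates, 48-hour exposure. TGI is the concentration that stops growth completely.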

Common to all, as to test: NCI tumour cell line growth inhibition, 48 h
The test system of assay [1] is KM12 colon.
Assay [2] relates to DU-145 prostate.
The subject of assay [3] is OVCAR-3 ovarian.
In assay [4] the test system is MALME-3M melanoma.
The subject of assay [5] is SNB-75 CNS.
For assay [6], the system named is HS 578T breast.
Assay [7] deals with UACC-62 melanoma.
Assay [8] concerns LOX IMVI melanoma.
The subject of assay [9] is HOP-62 NSCLC.
Assay [10] deals with SF-295 CNS.
Assay [11] deals with MOLT-4 leukemia.
In assay [12] the test system is SK-MEL-2 melanoma.
Assay [13] relates to HCT-15 colon.
Assay [14] concerns SF-539 CNS.

With `O=C(CCCl)NNC1=NCCCCN1`, the TGI in [1], in [2], in assay [3], in assay [4], in assay [5] and in [6] was > 100 µM each time. For the same molecule, the TGI in assay [7], in assay [8], in assay [9], in assay [10], in assay [11] and in [12] was > 100 µM throughout. In addition, the TGI in assay [13] and in assay [14] was > 100 µM in each case.
Consider `O=C1c2ccccc2CC12Cc1ccccc1C2`, for which the TGI in assay [1] was > 100 µM; in assay [2], > 100 µM; in assay [3] it was > 100 µM; in assay [4], > 100 µM; in assay [5], 90.3 µM; in assay [6], > 100 µM. Further, the TGI in assay [7], in assay [8], in assay [9], in assay [10], in assay [11] and in assay [12] was > 100 µM throughout. The TGI in assay [13] and in assay [14] was > 100 µM each time.
With `O=C1N[C@@H]2c3c(Br)sc(Br)c3C(=O)[C@@H]2O1`, the TGI in [1] stood at 26 µM; in [2], 28.2 µM; in [3] it was 3.38 µM; in [4] it was 7.63 µM; in [5], 16.7 µM; in assay [6], 78.7 µM. The TGI in [7] stood at 27.5 µM; in [8], 3.54 µM; in assay [9], 42.7 µM; in assay [10], 32.5 µM; in assay [11], 4.61 µM; in assay [12], 37.1 µM. Moreover, the figures for the TGI in [13] and in [14] were 4.05 µM and 24.1 µM, respectively.
With `COc1ccc(/C=C/C(=O)CC(=O)/C=C/c2ccc(OC)cc2)cc1`, the TGI was > 100 µM in assay [1]; > 100 µM in assay [2]; 75.5 µM in [3]; > 100 µM in assay [4]; > 100 µM in [5]; 99.8 µM in assay [6]. In addition, the TGI in assay [7] was > 100 µM; in assay [8], 25.1 µM; in assay [9] it was > 100 µM; in [10] it was > 100 µM; in assay [11], 70.8 µM; in [12] it was > 100 µM. For the same molecule, the TGI in [13] was > 100 µM; in assay [14], 78.7 µM.
For the molecule `NC(Cc1ccc(S(=O)(=O)O)cc1)C(=O)NC(Cc1ccc(S(=O)(=O)O)cc1)C(=O)NC(Cc1ccc(S(=O)(=O)O)cc1)C(=O)O` (configuration not stated), the TGI in [1], in assay [2], in [3], in assay [4], in assay [5] and in [6] was > 100 µM throughout. Also, the TGI in [7], in assay [8], in [9], in [10], in assay [11] and in assay [12] was > 100 µM throughout. Also, the TGI in assay [13] and in [14] was > 100 µM throughout.
For `CCOC(=O)c1nc2ccccc2nc1Oc1cc(OC)c(OC)c(OC)c1`, the TGI in assay [1], in assay [2], in [3], in assay [4], in [5] and in [6] was > 100 µM each time. For the same molecule, the TGI in assay [7], in assay [8], in [9], in assay [10], in assay [11] and in assay [12] was > 100 µM in each case. In addition, the TGI in assay [13] and in [14] was > 100 µM in each case.
Take `Cc1ccc(/C=C2\CCCC(CN(C)C)C2=O)cc1` (configuration not stated): the TGI in assay [1] was 3.57 µM; in assay [2], 21.9 µM; in assay [3], 3.22 µM; in assay [4] it was 3.77 µM; in [5] it was 20.3 µM; in assay [6], > 100 µM. For the same molecule, the TGI was 5.09 µM in assay [7]; 3.38 µM in assay [8]; 34.7 µM in assay [9]; 31.2 µM in assay [10]; > 100 µM in [11]; 15.4 µM in assay [12]. For the same molecule, the TGI in [13] is 4.23 µM; in assay [14], 6.61 µM.
In the case of `Cc1nc2ccc(NC3OC(CO)C(O)C(O)C3O)cc2c(=O)n1-c1ccccc1` (configuration not stated), the TGI in assay [1], in [2], in assay [3], in [4], in assay [5] and in [6] was > 100 µM in each case. Moreover, the TGI in assay [7], in [8], in assay [9], in assay [10], in [11] and in assay [12] was > 100 µM each time. For the same molecule, the TGI in assay [13] is > 100 µM.
On to `O=C1NC(=O)/C(=C/c2ccc(S(=O)(=O)N/N=C\C(O)C(O)C(O)C(O)CO)cc2)N1` (configuration not stated), for which the TGI in [1], in [2], in [3], in assay [4], in assay [5] and in assay [6] was > 100 µM each time. Also, the TGI in assay [7], in [8], in assay [9], in assay [10], in assay [11] and in [12] was > 100 µM throughout. In assay [13], the TGI is > 100 µM.
Turning to `CN(C)C=NCCN1CCOCC1`, the TGI in assay [2], in assay [3], in assay [4], in assay [5], in [6] and in assay [7] was > 100 µM throughout. Further, the TGI in assay [8], in [9], in assay [10], in assay [11], in [12] and in assay [13] was > 100 µM throughout. Further, the TGI in [14] was > 100 µM.
